Tested on: 192522-019-R-J2-PDC complex tumor spheroid viability
Experiment: Anticancer human tumor 192522-019-R-J2-PDC patient-derived colon adenocarcinoma cell line growth inhibition [POLQ]
Details: for IC50: curve of first compound; for viability, T/C: stronger effect = lower value
Method in brief: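 Patient-derived tumour cells were co-cultured with HUVEC and mesenchymal stem cells as multicellular spheroids at 37 °C. They were treated with POLQ inhibitors (novobiocin, ART-558, RP6685) alone or combined with other agents. Top concentrations were at or near clinical Cmax (otherwise 10 microM; SN-38 at 1 microM), decreasing in half-log steps.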

[1] = second compound 0.0316 µM, first compound 0.0316 µM
[2] = second compound 0.0316 µM, first compound 0.1 µM
[3] = second compound 0.0316 µM, first compound 0.316 µM
[4] = second compound 0.0316 µM, first compound 1 µM
[5] = second compound 0.0316 µM, first compound 3.16 µM
[6] = second compound 0.0316 µM, first compound 10 µM
[7] = second compound 0.1 µM, first compound 0.0316 µM
[8] = second compound 0.1 µM, first compound 0.1 µM
[9] = second compound 0.1 µM, first compound 0.316 µM
[10] = second compound 0.1 µM, first compound 1 µM
[11] = second compound 0.1 µM, first compound 3.16 µM
[12] = second compound 0.1 µM, first compound 10 µM
[13] = second compound 0.316 µM, first compound 0.0316 µM
[14] = second compound 0.316 µM, first compound 0.1 µM
[15] = second compound 0.316 µM, first compound 0.316 µM
[16] = second compound 0.316 µM, first compound 1 µM
[17] = second compound 0.316 µM, first compound 3.16 µM
[18] = second compound 0.316 µM, first compound 10 µM
[19] = second compound 1 µM, first compound 0.0316 µM
[20] = second compound 1 µM, first compound 0.1 µM
[21] = second compound 1 µM, first compound 0.316 µM
[22] = second compound 1 µM, first compound 1 µM
[23] = second compound 1 µM, first compound 3.16 µM
[24] = second compound 1 µM, first compound 10 µM
[25] = second compound 3.16 µM, first compound 0.0316 µM
[26] = second compound 3.16 µM, first compound 0.1 µM
[27] = second compound 3.16 µM, first compound 0.316 µM
[28] = second compound 3.16 µM, first compound 1 µM
[29] = second compound 3.16 µM, first compound 3.16 µM
[30] = second compound 3.16 µM, first compound 10 µM
[31] = second compound 10 µM, first compound 0.0316 µM
[32] = second compound 10 µM, first compound 0.1 µM
[33] = second compound 10 µM, first compound 0.316 µM
[34] = second compound 10 µM, first compound 1 µM
[35] = second compound 10 µM, first compound 3.16 µM
[36] = second compound 10 µM, first compound 10 µM
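Note: spheroids exposed to drugs for seven days before reading.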
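Throughout, for viability, T/C: 100% = DMSO vehicle control viability in luminescence.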

SMILES: CCc1cc2c(N3CCc4c(cc(Cn5ccnc5)cc4-c4cn(C)nc4C(F)(F)F)C3=O)cc(C)nc2c(OC)n1 + Nc1ccc(C#CCN(C(=O)Cc2ncc(C(F)(F)F)cc2C(F)(F)F)c2ccc(F)cc2)nn1
- IC50 (second compound 0.0316 µM): > 10 µM
- IC50 (second compound 0.1 µM): > 10 µM
- IC50 (second compound 0.316 µM): > 10 µM
- IC50 (second compound 1 µM): > 10 µM
- IC50 (second compound 3.16 µM): > 10 µM
- IC50 (second compound 10 µM): > 10 µM
- viability, T/C [1]: 102%
- viability, T/C [2]: 99.6%
- viability, T/C [3]: 88.1%
- viability, T/C [4]: 73.7%
- viability, T/C [5]: 63.6%
- viability, T/C [6]: 65.4%
- viability, T/C [7]: 101%
- viability, T/C [8]: 93.6%
- viability, T/C [9]: 77.1%
- viability, T/C [10]: 76.9%
- viability, T/C [11]: 79.5%
- viability, T/C [12]: 73.1%
- viability, T/C [13]: 105%
- viability, T/C [14]: 100%
- viability, T/C [15]: 89.4%
- viability, T/C [16]: 75.6%
- viability, T/C [17]: 72.8%
- viability, T/C [18]: 73.4%
- viability, T/C [19]: 103%
- viability, T/C [20]: 94.2%
- viability, T/C [21]: 90.8%
- viability, T/C [22]: 76.8%
- viability, T/C [23]: 70.8%
- viability, T/C [24]: 69.2%
- viability, T/C [25]: 101%
- viability, T/C [26]: 95.9%
- viability, T/C [27]: 89.7%
- viability, T/C [28]: 81.6%
- viability, T/C [29]: 90.6%
- viability, T/C [30]: 81.3%
- viability, T/C [31]: 102%
- viability, T/C [32]: 98.7%
- viability, T/C [33]: 89.1%
- viability, T/C [34]: 83.4%
- viability, T/C [35]: 92.8%
- viability, T/C [36]: 81%

SMILES: CCc1cc2c(N3CCc4c(cc(Cn5ccnc5)cc4-c4cn(C)nc4C(F)(F)F)C3=O)ccnc2c(OC)n1 + Nc1ccc(C#CCN(C(=O)Cc2ncc(C(F)(F)F)cc2C(F)(F)F)c2ccc(F)cc2)nn1
- IC50 (second compound 0.0316 µM): > 10 µM
- IC50 (second compound 0.1 µM): > 10 µM
- IC50 (second compound 0.316 µM): > 10 µM
- IC50 (second compound 1 µM): > 10 µM
- IC50 (second compound 3.16 µM): > 10 µM
- IC50 (second compound 10 µM): > 10 µM
- viability, T/C [1]: 109%
- viability, T/C [2]: 94.7%
- viability, T/C [3]: 91.9%
- viability, T/C [4]: 71.8%
- viability, T/C [5]: 75.5%
- viability, T/C [6]: 72.2%
- viability, T/C [7]: 96.1%
- viability, T/C [8]: 94.9%
- viability, T/C [9]: 94%
- viability, T/C [10]: 80.9%
- viability, T/C [11]: 74.6%
- viability, T/C [12]: 70.6%
- viability, T/C [13]: 103%
- viability, T/C [14]: 99%
- viability, T/C [15]: 88%
- viability, T/C [16]: 80.6%
- viability, T/C [17]: 76.2%
- viability, T/C [18]: 77.1%
- viability, T/C [19]: 99.7%
- viability, T/C [20]: 99.4%
- viability, T/C [21]: 94.4%
- viability, T/C [22]: 88.3%
- viability, T/C [23]: 87.6%
- viability, T/C [24]: 74.5%
- viability, T/C [25]: 108%
- viability, T/C [26]: 91.6%
- viability, T/C [27]: 97.5%
- viability, T/C [28]: 81%
- viability, T/C [29]: 90.6%
- viability, T/C [30]: 75.8%
- viability, T/C [31]: 106%
- viability, T/C [32]: 97.9%
- viability, T/C [33]: 97.8%
- viability, T/C [34]: 86%
- viability, T/C [35]: 92.7%
- viability, T/C [36]: 79.8%

SMILES: COc1cc2cc(C(=O)CCC(=O)O)sc2cc1OC + Nc1ccc(C#CCN(C(=O)Cc2ncc(C(F)(F)F)cc2C(F)(F)F)c2ccc(F)cc2)nn1
- IC50 (second compound 0.0316 µM): > 10 µM
- IC50 (second compound 0.1 µM): > 10 µM
- IC50 (second compound 0.316 µM): > 10 µM
- IC50 (second compound 1 µM): > 10 µM
- IC50 (second compound 3.16 µM): > 10 µM
- IC50 (second compound 10 µM): > 10 µM
- viability, T/C [1]: 102%
- viability, T/C [2]: 105%
- viability, T/C [3]: 95.4%
- viability, T/C [4]: 99.6%
- viability, T/C [5]: 105%
- viability, T/C [6]: 89%
- viability, T/C [7]: 102%
- viability, T/C [8]: 92.1%
- viability, T/C [9]: 97.9%
- viability, T/C [10]: 101%
- viability, T/C [11]: 99.4%
- viability, T/C [12]: 87.3%
- viability, T/C [13]: 102%
- viability, T/C [14]: 102%
- viability, T/C [15]: 105%
- viability, T/C [16]: 100%
- viability, T/C [17]: 93.8%
- viability, T/C [18]: 91.8%
- viability, T/C [19]: 102%
- viability, T/C [20]: 98.5%
- viability, T/C [21]: 100%
- viability, T/C [22]: 98.8%
- viability, T/C [23]: 104%
- viability, T/C [24]: 103%
- viability, T/C [25]: 103%
- viability, T/C [26]: 103%
- viability, T/C [27]: 104%
- viability, T/C [28]: 93.3%
- viability, T/C [29]: 103%
- viability, T/C [30]: 103%
- viability, T/C [31]: 109%
- viability, T/C [32]: 97.4%
- viability, T/C [33]: 108%
- viability, T/C [34]: 103%
- viability, T/C [35]: 114%
- viability, T/C [36]: 102%

SMILES: O=C(Nc1ccc(O)c(NS(=O)(=O)c2ccc(F)cc2)c1)c1ccc(-c2ccccc2)cc1 + Nc1ccc(C#CCN(C(=O)Cc2ncc(C(F)(F)F)cc2C(F)(F)F)c2ccc(F)cc2)nn1
- IC50 (second compound 0.0316 µM): > 10 µM
- IC50 (second compound 0.1 µM): > 10 µM
- IC50 (second compound 0.316 µM): > 10 µM
- IC50 (second compound 1 µM): > 10 µM
- IC50 (second compound 3.16 µM): > 10 µM
- IC50 (second compound 10 µM): > 10 µM
- viability, T/C [1]: 104%
- viability, T/C [2]: 101%
- viability, T/C [3]: 94.6%
- viability, T/C [4]: 99.2%
- viability, T/C [5]: 104%
- viability, T/C [6]: 98.3%
- viability, T/C [7]: 109%
- viability, T/C [8]: 103%
- viability, T/C [9]: 94%
- viability, T/C [10]: 87.9%
- viability, T/C [11]: 102%
- viability, T/C [12]: 103%
- viability, T/C [13]: 97.2%
- viability, T/C [14]: 101%
- viability, T/C [15]: 94.9%
- viability, T/C [16]: 105%
- viability, T/C [17]: 105%
- viability, T/C [18]: 100%
- viability, T/C [19]: 110%
- viability, T/C [20]: 98.2%
- viability, T/C [21]: 97.5%
- viability, T/C [22]: 91.6%
- viability, T/C [23]: 101%
- viability, T/C [24]: 102%
- viability, T/C [25]: 99.4%
- viability, T/C [26]: 106%
- viability, T/C [27]: 102%
- viability, T/C [28]: 110%
- viability, T/C [29]: 107%
- viability, T/C [30]: 111%
- viability, T/C [31]: 103%
- viability, T/C [32]: 103%
- viability, T/C [33]: 109%
- viability, T/C [34]: 107%
- viability, T/C [35]: 111%
- viability, T/C [36]: 103%

— PubChem BioAssay AID1963850 (Molecular Pharmacology Branch, DTP, NCI, 2024)
